Results from patent US10087142B2, “Azetidine derivatives useful as modulators of cortical cathecolaminergic neurotransmission” (Integrative Research Laboratories Sweden AB, priority 2015, dated 2018).
Where a name gives a salt, the structure may show the parent alone. Read-outs that look alike come from different tables or passages of the source. Marks after values point to notes of the source that are not given here.

How the values were obtained:
[1] = tested on: non-pre-treated Sprague-Dawley rats; test: Locomotor activity in drug-naïve rats (behaviour test); assay type: in vivo, rat; details: recorded 60 minutes, n = 5
Procedure: The effect of compounds in the present disclosure on locomotor activity in drug-naïve rats was also investigated. The animals were placed in the motility meters immediately after drug administration and locomotor activity was recorded for 60 minutes (counts/60 min±SEM). The results are presented as percent of control.
Behavioural activity was measured using eight Digiscan activity monitors (RXYZM (16) TAO, Omnitech Electronics, Columbus, Ohio, USA), connected to an Omnitech Digiscan analyzer and an Apple Macintosh computer equipped with a digital interface board (NB DIO-24, National Instruments, USA). Each activity monitor consisted of a quadratic metal frame (W×L=40 cm×40 cm) equipped with photo beam sensors. During measurements of behavioural activity, a rat was put in a transparent acrylic cage (W×L×H, 40×40×30 cm) which in turn was placed in the activity monitor. Each activity monitor was equipped with three rows of infrared photo beam sensors, each row consisting of 16 sensors. Two rows were placed along the front and the side of the floor of the cage, at a 90° angle, and the third row was placed 10 cm above the floor to measure vertical activity. Photo beam sensors were spaced 2.5 cm apart. Each activity monitor was fitted in an identical sound and light attenuating box containing a weak house light and a fan.
The computer software was written using object oriented programming (LabVIEW™, National instruments, Austin, Tex., USA).
Behavioural data from each activity monitor, representing the position (horizontal center of gravity and vertical activity) of the animal at each time, were recorded at a sampling frequency of 25 Hz and collected using a custom written LABView™ application. The data from each recording session were stored and analyzed with respect to distance traveled. Each behavioural recording session lasted 60 min, starting approximately 5 min after the injection of test compound.
Compounds disclosed herein have been tested for effects on spontaneous locomotor activity in non-pre-treated Sprague-Dawley rats (based on accumulated distance traveled 0-60 min post dosing), and with doses up to 33 μmol/kg (s.c.).

[2] = tested on: monoamine transmitters (NA, DA and 5-HT); test: In vivo brain microdialysis of monoamines in striatum and frontal cortex; parameters: species or system rat; details: rats; for response vs control in vivo at 50 µmol/kg: Rattus norvegicus, sc
From the text: The microdialysis technique (See, for instance, Collin and Ungerstedt, Microdialysis: user's guide, Carnegie Medicin, Stockholm, 1988) is a well-established technique for measuring extracellular levels of neurotransmitters (Ungerstedt, J Int Med, 1991, 230; 365-73). The microdialysis technique was used to measure the effect of compounds disclosed herein upon the efflux of monoamine transmitters (NA, DA and 5-HT) in striatum and frontal cortex in conscious, freely moving rats.
Male Sprague-Dawley rats weighing 280-320 g were used throughout the experiments. Before the experiment the animals were housed in groups, maximum five animals in each cage, with free access to water and food. The animals were housed at least one week prior to surgery and use in the experiments.
A modified version (Waters et al., J Neural Transm Gen Sect, 1994, 98(1); 39-55) of the I-shaped probe (Santiago and Westerink, N-S Arch Pharmacol, 1990, 342; 407-14) with the AN69 polyacrylonitrile/sodium methyl sulfonate copolymer (HOSPAL; o.d/i.d. 310/220 μm: dialysis membrane (Gambro, Lund, Sweden) was used in the microdialysis experiments. In the dorsal striatum, probes with an exposed length of 3 mm of dialysis membrane were used and in the prefrontal cortex the corresponding length was 2.5 mm. The rats were operated under isoflurane inhalation anesthesia while mounted into a Kopf stereotaxic instrument. Coordinates were calculated relative to bregma; dorsal striatum AP+1.0, ML±2.6, DV 6.2; Pf cortex, AP 15+3.2, ML+1.2, DV −4.08°, according to Paxinos and Watson (New York, Academic Press, 1986; FIG. 8 and FIG. 14). The dialysis probe was positioned in a burr hole under stereotaxic guidance and cemented with phosphatine dental cement (DAB Dental).
The rats were housed individually in cages for 48 h before the dialysis experiments, allowing them to recover from surgery and minimizing the risk of drug interactions with the anesthetics during the following experiments. During this period the rats had free access to food and water.
On the day of the experiment the rats were connected to a micro-perfusion pump via a swivel and were replaced in the cage where they could move freely within its confinements. The perfusion medium was a Ringer's solution containing (in mmol/I): NaCl; 140, CaCl2; 1.2, KCl; 3.0, MgCl2; 1.0 (Moghaddam and Bunney. Neurochem., 1989, 53; 652-4). The pump was set to a perfusion speed of 2 μl/min and 40 μl sample volume were collected every 20 min.
The rats were perfused for at least 40 min before sampling began. Five fractions of each 20 min were collected and the last three were used for the establishment of the baseline. After collection of baseline fractions, the pharmacological challenge to the dialysis experiment started. Test compounds were administrated by injection (s.c.) in a volume of 5 ml/kg, with 0.9% NaCl (saline) as vehicle.
The analytical method were based on two chromatographic separations dedicated for amines or acids. Two chromatographic systems shared a common auto injector with a 10-port valve and two sample loops for simultaneous injection on the two systems.
The acids were separated by reversed phase chromatography while the amines were separated by reversed phase ion pairing chromatography preceded by a reverse phase separation in a column switching configuration. Three separation columns (Luna C18 (2), dp 3 μm, 2 mm i.d., Phenomenex) of different lengths were used. Electrochemical detection was accomplished on glassy carbon electrodes (MF-1000, Bioanalytical Systems, Inc.)
The aqueous mobile phase (0.6 ml/min) for the acid system contained citric acid (40 mM, dipotassium hydrogen phosphate 10 mM, methanol 8-11% (v/v) and EDTA 0.1 mM. Column length was 30 mm and detection potential relative to Ag/AgCl reference was 0.74V. […]

[3] = 50 μmol/kg s.c., striatum dialysate
[4] = 50 μmol/kg s.c., frontal cortex dialysate, read-out: DA FC ± SEM, maximum effect compared to baseline
[5] = 50 μmol/kg s.c., frontal cortex dialysate, read-out: NA FC ± SEM, maximum effect compared to baseline
[6] = 16.7 μmol/kg s.c., frontal cortex dialysate, Fumarate Salt
[7] = 16.7 μmol/kg s.c., striatum dialysate, Fumarate Salt
[8] = 50 μmol/kg s.c., frontal cortex dialysate, read-out: 5-HT FC ± SEM, maximum effect compared to baseline
[9] = 50 μmol/kg s.c., striatum dialysate, read-out: 5-HT Stri ± SEM, maximum effect compared to baseline
[10] = 50 μmol/kg s.c., striatum dialysate, read-out: DA Stri ± SEM, maximum effect compared to baseline

Structure (SMILES) | melting point | response vs control in vivo at 50 µmol/kg [2, 4] | response vs control in vivo at 50 µmol/kg [2, 5] | response vs control in vivo at 50 µmol/kg [2, 8] | response vs control in vivo at 50 µmol/kg [2, 9] | response vs control in vivo at 50 µmol/kg [2, 10] | other results
Fc1cc(F)c(C(F)C2CNC2)c(F)c1.O=C(O)C(=O)O (centres unmarked) (hydrate or solvate) | 149.6 °C | – | – | – | – | – | –
CCCN1CC(C(F)c2cccc(F)c2F)C1.O=C(O)C(=O)O (centres unmarked) (hydrate or solvate) | 137.4 °C | – | – | – | – | – | –
CCCN1CC(C(F)c2cc(F)cc(F)c2F)C1.O=C(O)C(=O)O (centres unmarked) (hydrate or solvate) | 159 °C | – | – | – | – | – | –
CCN1CC(C(F)c2cc(F)c(F)c(F)c2)C1.O=C(O)C(=O)O (centres unmarked) (hydrate or solvate) | 129.8 °C | – | – | – | – | – | –
Fc1cc(F)c(F)c(C(F)C2CNC2)c1F.O=C(O)C(=O)O (centres unmarked) (hydrate or solvate) | 181.6 °C | – | – | – | – | – | –
CCN1CC(C(F)c2c(F)c(F)cc(F)c2F)C1.O=C(O)C(=O)O (centres unmarked) (hydrate or solvate) | 145.9 °C | – | – | – | – | – | –
Cl.Fc1cccc(C(F)C2CNC2)c1F (single isomer, unassigned; (+)) [Example 2, (+)-3-[(2,3-Difluorophenyl)(Fluoro)Methyl]Azetidine Hydrochloric Acid Salt] | – | 580 ± 223% | 394 ± 273% | – | – | – | locomotor activity, percent of control means ([1]; 11 μmol/kg s.c.): 152%; locomotor activity, percent of control means ([1]; 33 μmol/kg s.c.): 159%*; 5-HT FC ± SEM, maximum effect compared to baseline ([2]; 50 μmol/kg s.c., frontal cortex dialysate): 253 ± 92^b percent of control; 5-HT Stri ± SEM, maximum effect compared to baseline [2, 3]: 249 ± 5^b percent of control; DA Stri ± SEM, maximum effect compared to baseline [2, 3]: 149 ± 7^b percent of control; NA Stri ± SEM, maximum effect compared to baseline [2, 3]: 126 ± 7^b percent of control
Fc1cc(F)cc(C(F)C2CNC2)c1.O=C(O)/C=C/C(=O)O (single isomer, unassigned; (+)) [Example 4, (+)-3-[(3,5-Difluorophenyl)(Fluoro)Methyl]Azetidine Fumarate Salt] | – | – | – | – | – | – | 5-HT FC ± SEM, maximum effect compared to baseline [2, 6]: 170^a percent of control; DA FC ± SEM, maximum effect compared to baseline [2, 6]: 226^a percent of control; NA FC ± SEM, maximum effect compared to baseline [2, 6]: 198^a percent of control; 5-HT Stri ± SEM, maximum effect compared to baseline [2, 7]: 198^a percent of control; DA Stri ± SEM, maximum effect compared to baseline [2, 7]: 116^a percent of control; NA Stri ± SEM, maximum effect compared to baseline [2, 7]: 122^a percent of control
Cl.Fc1ccc(C(F)C2CNC2)cc1F (centres unmarked) [Example 5, 3-[(3,4-Difluorophenyl)(Fluoro)Methyl]Azetidine Hydrochloric Acid Salt] | – | 330 ± 75% | – | 234% | 435 ± 61% | 136 ± 4% | NA Stri ± SEM, maximum effect compared to baseline [2, 3]: 480^a percent of control
Fc1cccc(F)c1C(F)C1CNC1 (centres unmarked) [Example 7, 3-[(2,6-Difluorophenyl)(Fluoro)Methyl]Azetidine Oxalate Salt] | – | 860 ± 283% | 570 ± 6% | 404 ± 21% | 213% | 130% | –
Fc1ccc(C(F)C2CNC2)c(F)c1 (centres unmarked) [Example 8, 3-[(2,4-Difluorophenyl)(Fluoro)Methyl]Azetidine Oxalate Salt] | – | 549 ± 163% | 400 ± 28% | 428 ± 118% | 402 ± 12% | 133 ± 15% | –
Fc1cc(F)c(F)c(C(F)C2CNC2)c1.O=C(O)C(=O)O (centres unmarked) [Example 9, 3-[Fluoro(2,3,5-Trifluorophenyl)Methyl]Azetidine Oxalate Salt] | – | – | 840 ± 122% | 207 ± 21% | 231 ± 106% | 127 ± 13% | NA Stri ± SEM, maximum effect compared to baseline [2, 3]: 860^a percent of control
Fc1ccc(C(F)C2CNC2)c(F)c1F (centres unmarked) [Example 11, 3-[Fluoro(2,3,4-Trifluorophenyl)Methyl]Azetidine Oxalate Salt] | – | 263% | 342% | 236% | 366% | 85 ± 14% | –
Fc1cc(C(F)C2CNC2)cc(F)c1F (centres unmarked) [Example 12, 3-[Fluoro(3,4,5-Trifluorophenyl)Methyl]Azetidine Oxalate Salt] | – | 252 ± 70% | 214 ± 28% | 322 ± 4% | 359 ± 105% | 131% | –
CCN1CC(C(F)c2cccc(F)c2F)C1 (centres unmarked) [Example 16, 3-[(2,3-Difluorophenyl)(Fluoro)Methyl]-1-Ethylazetidine Hydrochloric Acid Salt] | – | 229 ± 23% | 272 ± 58% | 197 ± 124% | 313 ± 23% | 139 ± 4% | –
CCN1CC(C(F)c2cc(F)cc(F)c2)C1 (centres unmarked) [Example 19, 3-[(3,5-Difluorophenyl)(Fluoro)Methyl]-1-Ethylazetidine Oxalate Salt] | – | 399 ± 30% | 354 ± 54% | 212 ± 15% | 170 ± 63% | 144 ± 10% | –
CCCN1CC(C(F)c2cc(F)cc(F)c2)C1 (centres unmarked) [Example 20, 3-[(3,5-Difluorophenyl)(Fluoro)Methyl]-1-Propylazetidine Oxalate Salt] | – | 362% | 264% | 171% | 145% | 111% | –
CCN1CC(C(F)c2cc(F)cc(F)c2F)C1 (centres unmarked) [Example 22, 1-Ethyl-3-[Fluoro(2,3,5-Trifluorophenyl)Methyl]Azetidine Oxalate Salt] | – | 654 ± 212% | – | 140% | – | 158% | –
